# According to patent publication US8575368B2, “Proanthocyanidin of cashew apple, composition containing proanthocyanidin, and application thereof” (Nichirei Biosciences, Inc., priority 2008, dated 2013):
# Structures can show the parent of a compound that is named as a salt. Where two headings read alike, the source gives them in different places.
# Columns and labels:
# [1] = target: lipase from Pseudomonas sp. (type XIII); assay: Bacterial lipase inhibitory activity test (4-methylumbelliferyl oleate fluorescence); assay type: biochemical; conditions: 0.1 μg/ml lipase solution
# Text: In order to extensively evaluate lipase inhibitory activities of the product of the present invention and of a plurality of known components, lipase derived from commercially available bacteria of Pseudomonas (Pseudomonas sp.) was used. Pseudomonas is a […] of gram-negative aerobic bacteria. A representative example of well-known bacteria is P. aeruginosa. In the experiment, lipase from Pseudomonas sp. (type XIII, ≧15 units/solid, L9518, Sigma-Aldrich Japan) was used. This lipase is a very potent enzyme. From the preliminary inquiry to the inhibitory activity test, 0.1 μg/ml of a lipase solution was used. In the experiment, fractions obtained in Examples 2 and 3 containing proanthocyanidin polymers derived from cashew apple of the present invention were subjected to the assay. The following reagent was used as a control sample to assay lipase inhibitory activity.
# Assay was carried out in accordance with Non-Patent Document 2 (J. Agric. Food Chem., 2007, 55, 4604-4609). A specimen diluent and a blank solution (a specimen diluent) were added to a 96-well fluorescence plate and then at 25 μl/well. A lipase solution prepared with the use of PBS(−) (lipase from Pseudomonas sp. Type XIII, SIGMA) was added to the test of the present invention at 25 μl/well and PBS(−) was added to the blind test group at 25 μl/well. A 0.1 mM fluorescent substrate solution (4-methylumbelliferyl oleate, Fluka) prepared with the use of PBS(−) was added thereto at 50 μl/well, and the reaction was then allowed to proceed for 20 minutes. A 0.1 M sodium citrate solution (pH 4.2) was added as a reaction terminator at 100 μl/well, and fluorescence intensity was assayed using a fluorescence plate reader (Ex 365 nm, Em 450 nm). Lipase inhibitory activity was determined by the following formula. 3,4-Dihydroxycinnamic acid and gallic acid were dissolved in an aqueous solution of 10% methanol, and a blank solvent was subjected to the assay with the use of an aqueous methanol solution at the same concentration.
# <Calculation Formula> Lipase inhibitory activity(%)=(1−(A−B)/(C−D))×100 A: fluorescence intensity in the blind test using a sample solution B: fluorescence intensity in the test of the present invention using a sample solution C: fluorescence intensity in the blind test using a blank solution (a dilute solvent) D: fluorescence intensity in the test of the present invention using a blank solution (a dilute solvent)
# Enzyme inhibitory activities of the sample solutions were assayed at a plurality of concentrations, the data were logarithmically plotted, and the concentration at which 50% of lipase activity was inhibited (IC50) was determined by the least-square method.
# Using the powders prepared by fractionation via ultrafiltration and lyophilization in Example 3, the relationship between the molecular weight and the bacterial lipase inhibitory activity was examined. The lipase inhibitory activity test was carried out in the manner described in Example 9.
# [2] = Assay of antioxidation activity via DPPH radical elimination; conditions: 30° C., 30 minutes, absorbance 517 nm
# Protocol: A solution of a stable radical, diphenyl-p-picrylhydradil (DPPH), in ethanol was used to evaluate the antioxidation activity. Ethanol (1,200 μl) and 400 μl of specimens (adjusted at an arbitrary concentration) were mixed with 1,600 μl of 250 mM acetate buffer (pH 5.5), and the mixture was preincubated at 30° C. for 5 minutes. A 500 μM DPPH/ethanol solution (800 μl) was added thereto, the resulting mixture was allowed to stand at 30° C. for 30 minutes, and the absorbance at 517 nm was assayed. When the control sample dissolved in ethanol was used as a specimen, 800 μl of ethanol, 400 μl of a solution of specimens in ethanol, and 400 μl of purified water were mixed, and the resulting mixture was preincubated at 30° C. for 5 minutes. A 500 μM DPPH/ethanol solution (800 μl) was added thereto, the resulting mixture was allowed to stand at 30° C. for 30 minutes, and the absorbance at 517 nm was assayed. A solution prepared in the same manner except for the use of purified water was used as a control sample. Based on the absorbance assayed, the percentage of radical elimination was determined by the following formula. Radical elimination(%)=(1−[absorbance of sample]/[absorbance of control])×100
# The concentration of the sample in the sample solution was gradually changed to determine the percentage of radical elimination, the concentration of the sample solution at which the percentage of DPPH radical elimination became 50% was determined, and the determined value was designated as the 50% elimination concentration of DPPH radicals. As the value is reduced, the capacity for radical elimination is enhanced.
# lipase [3] = target: T1, lipase (Sus scrofa, UniProt P00591); conditions: cited from earlier work; for IC50: read-out: Lipase inhibitory activity (IC50)
# T1 sequence (P00591 1-450): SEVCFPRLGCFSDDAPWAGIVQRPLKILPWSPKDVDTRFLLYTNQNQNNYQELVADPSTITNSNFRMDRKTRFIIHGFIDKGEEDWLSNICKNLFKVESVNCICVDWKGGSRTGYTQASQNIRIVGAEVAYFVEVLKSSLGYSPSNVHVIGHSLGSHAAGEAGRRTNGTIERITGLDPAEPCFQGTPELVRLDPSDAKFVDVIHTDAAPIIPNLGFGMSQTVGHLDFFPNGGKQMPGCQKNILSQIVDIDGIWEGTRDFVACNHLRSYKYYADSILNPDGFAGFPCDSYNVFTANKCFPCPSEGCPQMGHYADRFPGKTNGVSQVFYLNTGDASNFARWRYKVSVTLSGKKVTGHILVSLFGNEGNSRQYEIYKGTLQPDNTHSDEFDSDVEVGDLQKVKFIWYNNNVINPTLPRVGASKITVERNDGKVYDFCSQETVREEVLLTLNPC
# [4] = target: T2, lipase from porcine pancreas Type II (Sus scrofa, UniProt P00591); assay: Lipase inhibitory activity assay (4-methylumbelliferyl oleate fluorescence); assay type: biochemical; conditions: final specimen concentration; porcine pancreatic lipase
# T2 construct: lipase from porcine pancreas Type II, SIGMA; purchased SIGMA; host or cells: porcine pancreas
# Protocol: Assay was carried out in accordance with Non-Patent Document 2 (J. Agric. Food Chem., 2007, 55, 4604-4609). A specimen solution was added to a 96-well fluorescence plate at 25 μl/well. A lipase solution (lipase from porcine pancreas Type II, SIGMA) prepared with the use of PBS(−) was added to the plate of the test group at 25 μl/well and PBS(−) was added to the plate of the blind test group at 25 μl/well. A 0.1 mM fluorescent substrate solution (4-methylumbelliferyl oleate, Fluka) prepared with the use of PBS(−) was added thereto at 50 μl/well, and the reaction was then allowed to proceed for 20 minutes. A 0.1 M sodium citrate solution (pH 4.2) was added as a reaction terminator at 100 μl/well, and fluorescence intensity was assayed using a fluorescence plate reader (Ex 365 nm, Em 450 nm). In a blank test, samples of the test group and of the blind test group were prepared and fluorescence intensity was assayed in the same manner as described above, except that the same amount of a solvent used for the preparation of a specimen solution was used instead of “specimen solution.” The percentage of lipase inhibition was determined by the following formula. […]
# lipase [5] = target: T1, lipase; conditions: Non-Patent Document 2; read-out: Lipase inhibitory activity (IC50) (converted); cited from earlier work
Compound,Activity of bacterial lipase inhibition (IC50) [1] [µg/mL],50% Elimination concentration of DPPH radicals [2] [µg/mL],other results
"O=C(O)C=Cc1ccc(O)c(O)c1 [3,4-Dihydroxycinnamic acid]",42.3,2.8,
O.O=C(O)c1cc(O)c(O)c(O)c1 [Gallic acid monohydrate],574.2,1.2,
(−)-epigallocatechin 3-O-gallate [Epigallocatechin gallate],918.8,2.0,"IC50 (lipase [3]; Patent Document 4): 0.284 µM; Lipase inhibitory activity (IC50) (lipase [3]; Patent Document 5, value in brackets): 0.16 µg/mL; IC50 (lipase [3]; Patent Document 5): 0.349 µM; Lipase inhibitory activity (IC50) [4]: 20.0 µg/mL"
O=C1O[C@H]([C@@H](O)CO)C(O)=C1O [L(+)-ascorbic acid],,3.9,
"O=C(/C=C/c1ccc(O)c(O)c1)O[C@@H]1C[C@](O)(C(=O)O)C[C@@H](O)[C@H]1O [Chlorogenic acid, chlorogenic acid]",69.2,,IC50 (lipase [5]): 169 µM; IC50 [4]: 219 µM
CN(C)[C@@H]1C(O)=C(C(N)=O)C(=O)[C@@]2(O)C(O)=C3C(=O)c4c(O)cccc4[C@@](C)(O)[C@H]3C[C@@H]12 [Tetracycline hydrochloride],134.6,,
